Values quoted from earlier work as cited in patent US6673157B1, “Methods for stripping paint with DMSO containing compositions” (Gaylord Chemical Corporation, priority 2000, dated 2004).

How the values were obtained:
[1] = pure substance
[2] = DMSO concentrations as high as 40%; living human skin
[3] = applied to intact human skin in vivo; abrupt fall-off below 70%

SMILES | Rate of penetration of animal skin [1] | LD50 oral rat toxicity | Effect of DMSO on rate of skin penetration of octyl acetate [2] | DMSO concentration at which it penetrates intact skin to the blood vessels [3] [%]
C[S+](C)[O-] [DMSO, dimethyl sulfoxide] | approximately 176±42 g/m^2/hr | approximately 17,400 milligrams per kilogram | did not increase the rate of skin penetration of octyl acetate | ≥ 70
CC(=O)OC(C)(C)C [t-butyl acetate] |  | about 4500 mg per kilogram |  | 
O [water, reference compound] | approximately 14.8±0.1 g/m^2/hr |  |  | 
